According to PMC4644980, “The FDA-approved natural product dihydroergocristine reduces the production of the Alzheimer’s disease amyloid-β peptides” (Scientific Reports, 2015):
Values joined by “and” are separate entries in the source; they are usually repeats but may differ in a detail not shown here. Equal entries are not always repeated. Structures can show the parent of a compound that is named as a salt.

Tests used:
purified γ-secretase = target: T1, purified γ-secretase (Homo sapiens, UniProt P49768+Q92542); test: cell-free in vitro C100-Flag γ-secretase assay with purified enzyme; format: biochemical
T1 construct: made in house
From the text: The density of the AICD-Flag and Aβ total bands was quantified by Odyssey software (Supplementary data Fig. S5). […] The residue was then separated by Bicine/urea SDS-PAGE, together with an Aβ standard of synthetic human Aβ38, Aβ40 and Aβ42, followed by Western blot detection with anti-Aβ antibody (6E10, left panel), or quantification by ELISA (right panel). Black bars, Aβ [1–40]; gray bars, Aβ[1–42]. Data were presented as the means ± sd. […] The change in response units over time is shown. […]
γ-Secretase was purified from S-20 cells as described previously. The recombinant APP-based protein substrate of γ-secretase, namely human C100-Flag, was overexpressed in E. coli and purified by using an anti-Flag M2 resin[31]. Full length human NCT was purified as described previously (for details, see Supplementary information)[32].
Cell-free in vitro γ-secretase assays using the recombinant C100-Flag substrate and purified γ-secretase were performed as described in the Supplementary information.
Aβ1-x peptides secreted in the cell media were quantitatively measured by ELISA (IBL, Gunma, Japan) according to the standard protocol from the manufacturer. Aβ40 and Aβ42 generated in the C100-Flag γ-secretase assays stopped with 0.5% SDS (final concentration) were quantified with the human Beta Amyloid or [1–42] colorimetric ELISA kit, respectively. […]
γ-Secretase activity assays
γ-Secretase purified from S-20 cells was solubilized in 0.2% (w/v) CHAPSO in 50 mM HEPES buffer (pH 7.0) containing of 150 mM NaCl, 5 mM MgCl2 and 5 mM CaCl2, and incubated with 0.1% (w/v) PC and 1 μM or otherwise indicated […]
concentrations of substrate at 37 °C for 4 h, after which the enzymatic reactions were stopped by adding 0.5% SDS (final concentration). The samples were analyzed by Western Blot for AICD-Flag or Aβ. […]

[1] = tested on: γ-secretase subunits (mNCT, PS1-NTF); test: Western blot of γ-secretase subunits in HEK293 or fibroblast cells; format: cell-based
Protocol: for 10 min before adding 25 µl of the stop solution. The fluorescence was monitored with a microplate reader (emission at 590 nm after excitation at 560 nm).
Western blot and antibodies
WT HEK293 or fibroblast cells were collected and lysed in 1% Nonidet P-40-HEPES buffer, and equal amounts of proteins [normalized by BCA (Pierce)] were separated by SDS-PAGE onto a 12% Tris-glycine gel, transferred onto a PVDF membrane (Bio-Rad, USA) and further probed with antibody CT15 (for APP/APP-CTFs, 1:2000, […]
(1:1000; Abcam, Cambridge, MA, USA) for PS1-NTF, UD-1 (for Pen-2, 1:500; a gift of Dr. Helena Karlström, Karolinska Institute, Sweden), NCT164 (for NCT, 1:1000; BD Bioscience, Bedford, MA, USA) as well as with an antibody for β-actin (1:2000, Abmart). For the analysis of Notch NICD, cell extracts were separated by SDS-PAGE onto a 10% Tris-glycine gel, transferred onto a PVDF membrane and blotted for NICD with an anti-Notch Ab1744 antibody (for the free N-terminus of NICD, 1:500, Cell Signaling Technology, Beverly, MA, USA).
Samples from in vitro γ-secretase activity assays were run on 16% Tricine-SDS-PAGE gels and transferred onto PVDF to detect Aβ and AICD-Flag with 6E10 (1:1000, Covance, Berkeley, CA, USA) and CT15 antibodies (1:5000, Sigma-Aldrich), […]

Nicastrin (NCT) = target: T2, Nicastrin (NCT) (Homo sapiens, UniProt Q92542); test: surface plasmon resonance, Nicastrin immobilized; format: binding; conditions: SPR, Biacore T100, CM5 chip; read-out: equilibrium dissociation constant (Kd), Nicastrin (NCT)
T2 construct: Full length human NCT was purified as described previously; 6×His (C); FLAG (C); made in house; host or cells: High Five insect cells (baculovirus made in Sf9)
T2 sequence (Q92542 34-709): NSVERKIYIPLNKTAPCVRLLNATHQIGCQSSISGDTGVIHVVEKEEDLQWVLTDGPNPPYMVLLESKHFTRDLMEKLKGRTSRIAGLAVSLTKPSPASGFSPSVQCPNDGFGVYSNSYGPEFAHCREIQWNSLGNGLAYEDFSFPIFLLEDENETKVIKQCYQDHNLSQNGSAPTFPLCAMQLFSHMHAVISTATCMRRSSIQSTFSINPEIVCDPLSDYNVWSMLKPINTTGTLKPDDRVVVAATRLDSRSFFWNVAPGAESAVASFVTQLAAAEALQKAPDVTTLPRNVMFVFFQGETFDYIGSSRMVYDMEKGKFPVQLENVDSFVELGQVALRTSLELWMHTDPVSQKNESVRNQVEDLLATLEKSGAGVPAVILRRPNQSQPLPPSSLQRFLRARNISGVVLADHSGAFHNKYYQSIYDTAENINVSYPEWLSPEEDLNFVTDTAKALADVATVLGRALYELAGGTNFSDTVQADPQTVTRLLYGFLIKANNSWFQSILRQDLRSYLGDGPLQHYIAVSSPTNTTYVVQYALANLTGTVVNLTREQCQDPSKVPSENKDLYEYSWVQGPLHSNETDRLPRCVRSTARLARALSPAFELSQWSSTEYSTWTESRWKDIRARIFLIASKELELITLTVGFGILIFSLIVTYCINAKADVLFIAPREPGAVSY
Protocol: A Biacore sensor Chip NTA that is designed to bind His-tagged proteins was used to immobilize γ-secretase. The SPR assay was performed in a running buffer (10 mM HEPES, 150 mM NaCl in the presence of 1% DMSO, pH 7.4). The purified His-tagged γ-secretase overexpressing human PS1, Flag-Pen-2, Aph-1a2-HA, and NCT-V5/His (see above) was diluted 6 times in DMSO-free running buffer. For each binding curve, the running buffer containing 500 μM NiCl2 was first injected to saturate the NTA chip. Then, His-tagged γ-secretase was injected and immobilized on the Ni^2+ -coated sensor chip. Compounds at the indicated concentrations were injected onto the surface of the sensor chip, and the corresponding binding spectrum was recorded. The sensor chip was regenerated with regeneration buffer (10 mM HEPES, 150 mM NaCl, 350 mM EDTA, pH 8.3). Purified human NCT (100 μg) was immobilized onto the flow cell of a CM5 sensor chip in 10 mM sodium acetate (pH 4.0) by using an amine coupling kit. The SPR assay was performed in HBS-P running buffer (10 mM HEPES, 150 mM NaCl and 0.005% surfactant P20 in the presence of 1% DMSO, pH 7.4). […] The Kd values were determined with Biacore evaluation 3.1 software. […]
Recombinant bacmids were used to transfect Sf9 cells to make the baculovirus, which was then used to infect High Five suspension insect cells (Invitrogen). […]

CC(C)[C@@]1(NC(=O)[C@@H]2C[C@@H]3c4cccc5[nH]cc(c45)C[C@H]3N(C)C2)O[C@@]2(O)[C@@H]3CCCN3C(=O)[C@H](Cc3ccccc3)N2C1=O [DHEC, Dihydroergocristine methanesulfonate salt]
γ-secretase-dependent processing of C100-Flag into AICD-Flag or Aβ (purified γ-secretase; 1 μM C100-Flag, 37 °C, 4 h): inhibited | inhibitory effect on γ-secretase at high substrate concentration (purified γ-secretase; 4 μM APP-C100 compared to 1 μM): greatly reduced inhibitory effect | The potency of compound (in vitro C100 γ-secretase assay) (purified γ-secretase; 200 µM, compared with DHEC, estimated by densitometry): ++ | IC50 (purified γ-secretase; IC50, Aβ40 and Aβ42 production (cell-free assay), 1 μM C100-Flag, 37 °C, 4 h, ELISA): ~100 µM and 100 µM | assembly and maturation of the protease complex (mNCT, PS1-NTF) [1]: not altered | Kd (Nicastrin (NCT)): 9.85 µM and ~10 µM and 9.8 µM and 10 µM
